Measured values as given in US6951856B2, “Arylethene-sulfonamides” (Actelion Pharmaceuticals Ltd., priority 2000, dated 2005).
Read-outs that look alike come from different tables or passages of the source.

Columns and labels:
[1] = target: T1, human recombinant ETA receptors (Homo sapiens, UniProt P25101); experiment: Inhibition of [125I]ET-1 binding to membranes from CHO cells carrying human ETA receptors; conditions: CHO cell membranes, 8 pM [125I]ET-1, 2 h at 20° C.
T1 construct: expressed in transfected cells; host or cells: CHO cells (microsomal membranes)
T1 sequence (P25101 21-427): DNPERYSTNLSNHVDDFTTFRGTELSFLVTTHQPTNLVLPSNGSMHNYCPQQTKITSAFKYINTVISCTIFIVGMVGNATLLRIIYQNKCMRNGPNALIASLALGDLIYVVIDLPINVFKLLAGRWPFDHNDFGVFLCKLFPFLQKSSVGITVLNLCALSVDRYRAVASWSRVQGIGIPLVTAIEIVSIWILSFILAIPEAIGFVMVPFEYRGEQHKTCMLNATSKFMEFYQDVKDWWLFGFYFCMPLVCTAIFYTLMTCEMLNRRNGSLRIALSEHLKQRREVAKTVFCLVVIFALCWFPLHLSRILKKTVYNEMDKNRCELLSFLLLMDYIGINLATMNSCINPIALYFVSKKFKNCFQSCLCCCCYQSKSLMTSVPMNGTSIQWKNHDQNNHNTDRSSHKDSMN
Protocol: (§1) 1) Inhibition of Endothelin Binding to Membranes from CHO Cells Carrying Human ET Receptors
(§2) For competition binding studies, membranes of CHO cells expressing human recombinant ETA or ETB receptors were used. Microsomal membranes from recombinant CHO cells were prepared and the binding assay made as previously described (Breu V., et al, FEBS Lett 1993; 334:210).
(§3) The assay was performed in 200 uL 50 mM Tris/HCl buffer, pH 7.4, including 25 mM MnCl2, 1 mM EDTA and 0.5% (w/v) BSA in polypropylene microtiter plates. […] After 2 h, the membranes were filtered on filterplates containing GF/C filters (Unifilterplates from Canberra Packard S.A. Zürich, Switzerland). To each well, 50 uL of scintillation cocktail was added (MicroScint 20, Canberra Packard S.A. Zürich, Switzerland) and the filter plates counted in a microplate counter (TopCount, Canberra Packard S.A. Zürich, Switzerland).
(§4) All the test compounds were dissolved, diluted and added in DMSO.

[2] = target: T2, ETA receptors (Rattus norvegicus, UniProt P26684); experiment: Inhibition of endothelin-1-induced contractions on isolated rat aortic rings; format: cell-based
T2 construct: The thoracic aorta or trachea were excised, dissected and cut in 3-5 mm rings; from tissue; host or cells: thoracic aorta rings of adult Wistar rats, endothelium removed
T2 sequence (P26684 21-426): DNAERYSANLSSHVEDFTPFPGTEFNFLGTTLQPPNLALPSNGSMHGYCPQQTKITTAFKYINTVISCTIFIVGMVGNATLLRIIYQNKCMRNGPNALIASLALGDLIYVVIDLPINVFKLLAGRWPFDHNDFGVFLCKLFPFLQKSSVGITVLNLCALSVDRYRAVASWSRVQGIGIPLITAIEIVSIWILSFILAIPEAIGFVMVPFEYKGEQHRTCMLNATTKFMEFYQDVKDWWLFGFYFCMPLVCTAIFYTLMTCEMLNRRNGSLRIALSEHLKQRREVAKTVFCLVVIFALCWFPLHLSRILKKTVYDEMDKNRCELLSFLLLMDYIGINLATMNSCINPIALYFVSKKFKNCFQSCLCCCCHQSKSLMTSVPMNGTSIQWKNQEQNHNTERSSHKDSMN
Protocol: (§5) 2) Inhibition of Endothelin-Induced Contractions on Isolated Rat Aortic Rings (ETA Receptors) and Rat Tracheal Rings (ETB Receptors):
(§6) Adult Wistar rats were anesthetized and exsanguinated. The thoracic aorta or trachea were excised, dissected and cut in 3-5 mm rings. The endothelium/epithelium was removed by gentle rubbing of the intimal surface. Each ring was suspended in a 10 ml isolated organ bath filled with Krebs-Henseleit solution (in mM; NaCl 115, KCl 4.7, MgSO4 1.2, KH2PO4 1.5, NaHCO3 25, CaCl2 2.5, glucose 10) kept at 37° and gassed with 95% O2 and 5% CO2. The rings were connected to force transducers and isometric tension was recorded (EMKA Technologies SA, Paris, France). The rings were stretched to a resting tension of 3 g (aorta) or 2 g (trachea). […] The functional inhibitory potency of the test compound was assessed by calculating the concentration ratio, i.e. the shift to the right of the EC50 induced by different concentrations of test compound. EC50 is the concentration of endothelin needed to get a half-maximal contraction, pA2 is the negative logarithm of the antagonist concentration which induces a two-fold shift in the EC50 value.

[3] = target: T3, ETB receptors (Rattus norvegicus, UniProt P21451); experiment: Inhibition of sarafotoxin S6c-induced contractions on isolated rat tracheal rings; format: cell-based
T3 construct: The thoracic aorta or trachea were excised, dissected and cut in 3-5 mm rings; from tissue; host or cells: tracheal rings of adult Wistar rats, epithelium removed
T3 sequence (P21451 27-442): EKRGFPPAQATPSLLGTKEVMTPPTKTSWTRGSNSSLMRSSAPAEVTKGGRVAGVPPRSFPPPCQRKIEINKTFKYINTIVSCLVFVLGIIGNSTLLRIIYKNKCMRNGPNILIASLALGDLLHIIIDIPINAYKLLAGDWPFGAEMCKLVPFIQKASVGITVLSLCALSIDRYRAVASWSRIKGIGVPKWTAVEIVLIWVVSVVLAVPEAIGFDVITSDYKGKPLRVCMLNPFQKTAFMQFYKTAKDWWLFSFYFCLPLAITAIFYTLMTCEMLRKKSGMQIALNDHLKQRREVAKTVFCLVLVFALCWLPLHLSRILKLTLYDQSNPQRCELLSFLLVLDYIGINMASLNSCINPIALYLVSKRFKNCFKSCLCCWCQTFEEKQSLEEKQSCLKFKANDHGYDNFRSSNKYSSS
Protocol: as §5, §6

[4] = target: T4, human recombinant ETB receptors (Homo sapiens, UniProt P24530); experiment: Inhibition of [125I]ET-1 binding to membranes from CHO cells carrying human ETB receptors
T4 construct: expressed in transfected cells; host or cells: CHO cells (microsomal membranes)
T4 sequence (P24530 27-442): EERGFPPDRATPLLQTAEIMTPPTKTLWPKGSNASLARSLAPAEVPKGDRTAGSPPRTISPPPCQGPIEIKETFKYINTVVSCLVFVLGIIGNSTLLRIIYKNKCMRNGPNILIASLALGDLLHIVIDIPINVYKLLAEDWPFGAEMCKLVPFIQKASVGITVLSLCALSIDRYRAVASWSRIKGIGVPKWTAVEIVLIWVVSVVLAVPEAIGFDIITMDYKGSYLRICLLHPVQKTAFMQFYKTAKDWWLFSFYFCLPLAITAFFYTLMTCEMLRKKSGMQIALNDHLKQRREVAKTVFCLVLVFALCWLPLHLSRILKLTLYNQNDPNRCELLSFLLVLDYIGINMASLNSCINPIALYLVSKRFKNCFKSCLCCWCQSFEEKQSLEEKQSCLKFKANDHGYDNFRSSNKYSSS
Protocol: as §1, §2, §3, §4

[5] = read-out: pA2 value ETA (converted)

Cc1ccc(-c2c(NS(=O)(=O)/C=C/c3ccccc3)ncnc2OCCOc2ncc(Br)cn2)cc1 [Example 1, 2-phenyl-ethenesulfonic acid {6-[2-(5-bromo-pyrimidin-2-yloxy)-ethoxy]-5-p-tolyl-pyrimidin-4-yl}-amide]
IC50 [1]: 1.8 nM | Kb [2]: 1.86 nM | Kb [3]: 81.3 nM | IC50 [4]: 569 nM

Cc1ccc(-c2c(NS(=O)(=O)/C=C/c3ccccc3)ncnc2OCCOc2ncc(Cl)cn2)cc1 [Example 14]
IC50 [1]: 4.75 nM | Kb [2, 5]: 2.14 nM | IC50 [4]: 841 nM

Cc1ccc(-c2c(NS(=O)(=O)/C=C/c3ccccc3)ncnc2OCCOc2ncc(F)cn2)cc1 [Example 15]
IC50 [1]: 18 nM | Kb [2, 5]: 26.9 nM | IC50 [4]: 2130 nM

O=S(=O)(/C=C/c1ccccc1)Nc1ncnc(OCCOc2ncc(Br)cn2)c1-c1ccc(Cl)cc1 [Example 43]
IC50 [1]: 4.6 nM | Kb [2, 5]: 0.851 nM | IC50 [4]: 408 nM

Cc1ccc(-c2c(NS(=O)(=O)/C=C/c3cccs3)ncnc2OCCOc2ncc(Br)cn2)cc1 [Example 67]
IC50 [1]: 7.8 nM | Kb [2, 5]: 0.316 nM | IC50 [4]: 752 nM

Cc1ccc(-c2c(NS(=O)(=O)/C=C/c3ccccc3)nc(-c3ccncc3)nc2OCCOc2ncc(Br)cn2)cc1 [Example 80]
IC50 [1]: 19.7 nM | Kb [2, 5]: 4.47 nM | Kb [3]: 6170 nM | IC50 [4]: 2570 nM

O=S(=O)(/C=C/c1ccccc1)Nc1ncnc(OCCOc2ncc(Br)cn2)c1-c1ccc(Br)cc1 [Example 85]
IC50 [1]: 3.8 nM | Kb [2, 5]: 0.851 nM | IC50 [4]: 238 nM

O=S(=O)(/C=C/c1ccccc1)Nc1ncnc(OCCOc2ncc(Br)cn2)c1-c1ccccc1 [Example 92]
IC50 [1]: 20 nM | Kb [2, 5]: 12.3 nM | IC50 [4]: 7470 nM

Cc1ccc(-c2c(NS(=O)(=O)/C=C/c3ccccc3)nc(-c3ncccn3)nc2OCCOc2ncc(Br)cn2)cc1 [Example 140]
IC50 [1]: 12.5 nM | Kb [2, 5]: 1.86 nM | IC50 [4]: 1090 nM

COc1ccccc1Oc1c(NS(=O)(=O)/C=C/c2ccccc2)nc(-c2ncccn2)nc1OCCOc1ncccn1 [Example 152]
IC50 [1]: 43.3 nM | Kb [2, 5]: 20.4 nM | Kb [3]: 912 nM | IC50 [4]: 4820 nM

COc1ccccc1Oc1c(NS(=O)(=O)/C=C/c2cccs2)nc(-c2ccncc2)nc1OCCOc1ncc(Br)cn1 [Example 173]
IC50 [1]: 4.2 nM | Kb [2, 5]: 1.48 nM | Kb [3]: 79.4 nM | IC50 [4]: 976 nM

COc1ccccc1Oc1c(NS(=O)(=O)/C=C/c2cccs2)nc(-c2ccncc2)nc1OCCOc1ncccn1 [Example 174]
IC50 [1]: 6.7 nM | Kb [2, 5]: 13.2 nM | IC50 [4]: 1010 nM

COc1ccccc1Oc1c(NS(=O)(=O)/C=C/c2ccccc2)nc(N2CCOCC2)nc1OCCOc1ncc(Br)cn1 [Example 193]
IC50 [1]: 2.6 nM | Kb [2, 5]: 2.51 nM | Kb [3]: 126 nM | IC50 [4]: 537 nM

COc1ccccc1Oc1c(NS(=O)(=O)/C=C/c2ccccc2)nc(N2CCOCC2)nc1OCCOc1ncccn1 [Example 194]
IC50 [1]: 7.8 nM | Kb [2, 5]: 31.6 nM | Kb [3]: 316 nM | IC50 [4]: 627 nM

COc1ccccc1Oc1c(NS(=O)(=O)/C=C/c2ccccc2)nc(N2CCOCC2)nc1OCCOc1ncc(Cl)cn1 [Example 195]
IC50 [1]: 6 nM | Kb [2, 5]: 9.12 nM | IC50 [4]: 293 nM

COc1ccccc1Oc1c(NS(=O)(=O)/C=C/c2ccccc2)nc(N2CCOCC2)nc1OCCOc1ncc(F)cn1 [Example 196]
IC50 [1]: 4.7 nM | Kb [2, 5]: 20.9 nM | IC50 [4]: 427 nM

COc1ccccc1Oc1c(NS(=O)(=O)/C=C/c2ccccc2)ncnc1OCCOc1ncc(Br)cn1 [Example 211]
IC50 [1]: 38 nM | Kb [2, 5]: 24.5 nM | Kb [3]: 224 nM | IC50 [4]: 2640 nM
